Assays:
human H3 receptor [1] = molecular target: T1, human H3 receptor (Homo sapiens, UniProt Q9Y5N1); assay: H3 receptor binding (N-[3H]-α-methylhistamine displacement, SK-N-MC cell membranes); settings: 0.8 nM N-[3H]-α-methylhistamine, 60 min at 25° C.
T1 construct: expressed in transfected cells
Procedure: Binding of compounds to the cloned human H3 receptor, stably expressed in SK-N-MC cells, was performed (Lovenberg, T. W. et al. J. Pharmacol. Exp. Ther. 2000, 293, 771-778). Briefly, cell pellets from SK-N-MC cells expressing the human H3 receptor were homogenized in 50 mM Tris-HCl/5 mM EDTA and re-centrifuged at 30,000 g for 30 min. Pellets were re-homogenized in 50 mM Tris/5 mM EDTA (pH 7.4). Membranes were incubated with 0.8 nM N—[^3H]-α-methylhistamine plus/minus test compounds for 60 min at 25° C. and harvested by rapid filtration over GF/C glass fiber filters (pretreated with 0.3% polyethylenimine) followed by four washes with ice-cold buffer. Nonspecific binding was defined in the presence of 10 μM histamine.

Rat SERT = molecular target: T2, Rat SERT (Rattus norvegicus, UniProt P31652); assay: Rat brain SERT binding ([3H]-Citalopram displacement, rat brain membranes); settings: 0.6 nM [3H]-Citalopram, 60 min at 25° C.
T2 construct: A rat brain without cerebellum (Zivic Laboratories, Inc.—Pittsburgh, Pa.) was homogenized; tissue Zivic Laboratories, Inc; host or cells: rat brain without cerebellum
Procedure: A rat brain without cerebellum (Zivic Laboratories, Inc.—Pittsburgh, Pa.) was homogenized in a 52.6 mM Tris pH 8/126.4 mM NaCl/5.26 mM KCl mixture and centrifuged at 1,000 rpm for 5 min. The supernatant was removed and re-centrifuged at 15,000 rpm for 30 min. Pellets were re-homogenized in a 52.6 mM Tris pH8/126.4 mM NaCl/5.26 mM KCl mixture. Membranes were incubated with 0.6 nM [^3H]-Citalopram plus/minus test compounds for 60 min at 25° C. and harvested by rapid filtration over GF/C glass fiber filters (pretreated with 0.3% polyethylenimine) followed by four washes with ice-cold buffer. Nonspecific binding was defined in the presence of 100 μM fluoxetine.

human SERT = molecular target: T3, human SERT (Homo sapiens, UniProt P31645); assay: Human SERT binding (3H-citalopram displacement, HEK293 membranes); settings: 3H-citalopram 3.1 nM, rt for 1 h
T3 construct: expressed in transfected cells; host or cells: HEK293
Procedure: Homogenized HEK293 (Human Embryonic Kidney) membranes expressing the human SERT were incubated with ^3H-citalopram (SERT) at rt for 1 h in 50 mM Tris, 120 mM NaCl, 5 mM KCl (pH 7.4). Nonspecific binding was determined in the presence of 10 μM fluoxetine for the SERT. The membranes were washed and the radioactivity was counted as above. Calculations for Ki at the SERT were based on a Kd value for ^3H-citalopram and a ligand concentration of 3.1 nM.

human H3 receptor [2] = molecular target: T1, human H3 receptor; assay: Cyclic AMP accumulation (β-galactosidase reporter in SK-N-MC cells); format: cell-based; settings: read-out: pA2 (converted)
Procedure: Sublines of SK-N-MC cells were created that expressed a reporter construct and the human H3 receptor. The reporter gene (β-galactosidase) is under the control of multiple cyclic AMP responsive elements. In 96-well plates, histamine was added directly to the cell media followed 5 min later by an addition of forskolin (5 μM final concentration). When appropriate, antagonists were added 10 min prior to agonist addition. After a 6-h incubation at 37° C., the media was aspirated and the cells washed with 200 μL of phosphate-buffered saline followed by a second aspiration. Cells were lysed with 25 μL 0.1× assay buffer (10 mM Na-phosphate, pH 8, 0.2 mM MgSO4, 0.01 mM MnCl2) and incubated at rt for 10 min. Cells were then incubated for 10 min with 100 μL of 1× assay buffer containing 0.5% Triton and 40 mM β-mercaptoethanol. Color was developed using 25 μL of 1 mg/mL substrate solution (chlorophenolred β-D galactopyranoside; Roche Molecular Biochemicals, Indianapolis, Ind.). Color was quantitated on a microplate reader at absorbance 570 nm. The pA2 values were calculated by Schild regression analysis of the pEC50 values.

T1 sequence (Q9Y5N1 whole entry): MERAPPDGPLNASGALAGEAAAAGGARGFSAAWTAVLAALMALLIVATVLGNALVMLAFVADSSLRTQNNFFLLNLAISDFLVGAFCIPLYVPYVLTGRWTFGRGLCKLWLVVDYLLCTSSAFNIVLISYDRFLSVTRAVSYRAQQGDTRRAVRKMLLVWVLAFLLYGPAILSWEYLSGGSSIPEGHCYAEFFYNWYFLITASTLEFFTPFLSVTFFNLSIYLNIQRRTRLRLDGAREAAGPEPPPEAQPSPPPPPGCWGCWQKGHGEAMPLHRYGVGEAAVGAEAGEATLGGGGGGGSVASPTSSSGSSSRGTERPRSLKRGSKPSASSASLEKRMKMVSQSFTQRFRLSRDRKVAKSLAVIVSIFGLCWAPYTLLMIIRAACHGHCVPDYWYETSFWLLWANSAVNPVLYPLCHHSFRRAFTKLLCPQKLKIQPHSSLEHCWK
T3 sequence (P31645 whole entry): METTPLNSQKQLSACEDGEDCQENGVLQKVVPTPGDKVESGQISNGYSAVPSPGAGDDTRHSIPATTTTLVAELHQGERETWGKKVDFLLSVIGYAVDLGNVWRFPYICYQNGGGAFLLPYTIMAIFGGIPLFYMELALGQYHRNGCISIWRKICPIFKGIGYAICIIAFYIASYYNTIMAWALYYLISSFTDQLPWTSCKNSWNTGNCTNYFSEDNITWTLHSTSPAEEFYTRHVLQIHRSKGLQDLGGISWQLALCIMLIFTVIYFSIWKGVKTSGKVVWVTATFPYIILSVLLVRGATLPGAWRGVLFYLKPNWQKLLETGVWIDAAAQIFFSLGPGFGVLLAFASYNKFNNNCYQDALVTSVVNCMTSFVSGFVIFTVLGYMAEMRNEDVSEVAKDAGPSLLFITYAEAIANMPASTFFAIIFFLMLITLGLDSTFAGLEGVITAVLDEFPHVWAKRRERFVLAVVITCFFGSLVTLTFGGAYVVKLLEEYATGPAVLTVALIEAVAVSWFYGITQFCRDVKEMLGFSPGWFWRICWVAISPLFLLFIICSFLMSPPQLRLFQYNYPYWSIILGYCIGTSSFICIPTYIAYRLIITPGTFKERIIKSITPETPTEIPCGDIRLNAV
T2 sequence (P31652 whole entry): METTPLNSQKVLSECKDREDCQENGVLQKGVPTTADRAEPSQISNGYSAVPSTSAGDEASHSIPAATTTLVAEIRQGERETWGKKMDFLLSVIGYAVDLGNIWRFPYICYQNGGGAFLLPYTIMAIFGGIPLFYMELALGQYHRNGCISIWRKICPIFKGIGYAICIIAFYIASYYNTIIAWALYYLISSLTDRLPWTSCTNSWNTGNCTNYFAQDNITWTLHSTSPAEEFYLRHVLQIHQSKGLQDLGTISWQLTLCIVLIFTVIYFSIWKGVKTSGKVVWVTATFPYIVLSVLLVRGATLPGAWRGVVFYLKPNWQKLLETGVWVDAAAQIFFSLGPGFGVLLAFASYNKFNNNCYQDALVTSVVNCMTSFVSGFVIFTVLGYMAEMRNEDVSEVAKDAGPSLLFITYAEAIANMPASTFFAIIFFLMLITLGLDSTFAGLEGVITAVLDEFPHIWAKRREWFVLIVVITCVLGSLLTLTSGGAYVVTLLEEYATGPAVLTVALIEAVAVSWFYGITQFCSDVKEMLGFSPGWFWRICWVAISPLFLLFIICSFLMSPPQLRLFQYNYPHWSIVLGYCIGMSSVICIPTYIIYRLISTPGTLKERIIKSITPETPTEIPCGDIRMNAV

Row | SMILES | Ki (human H3 receptor [1]) | Ki (Rat SERT) | Ki (human SERT) | Kb (human H3 receptor [2])
1 | CN(C)CCC(Oc1ccc(Br)cc1)c1ccc(OCCCN2CCCCC2)cc1 (centres unmarked) [Example 11, {3-(4-Bromo-phenoxy)-3-[4-(3-piperidin-1-yl-propoxy)-phenyl]-propyl}-dimethyl-amine] | 1.7 nM | 5 nM | 7 nM | 
2 | CN(C)CCC(Oc1ccc([N+](=O)[O-])cc1)c1ccc(OCCCN2CCCCC2)cc1 (centres unmarked) [Example 12, Dimethyl-{3-(4-nitro-phenoxy)-3-[4-(3-piperidin-1-yl-propoxy)phenyl]-propyl}-amine] | 0.9 nM | 4 nM | 9 nM | 
3 | CN(C)CCC(Oc1ccc(Cl)cc1Cl)c1ccc(OCCCN2CCCCC2)cc1 (centres unmarked) [Example 16, {3-(2,4-Dichloro-phenoxy)-3-[4-(3-piperidin-1-yl-propoxy)-phenyl]-propyl}-dimethyl-amine] | 0.9 nM | 7 nM | 10 nM | 
4 | CN(C)CCC(Oc1ccccc1Cl)c1ccc(OCCCN2CCCCC2)cc1 (centres unmarked) [Example 17, {3-(2-Chloro-phenoxy)-3-[4-(3-piperidin-1-yl-propoxy)-phenyl]-propyl}-dimethyl-amine] | 0.9 nM | 8 nM | 21 nM | 
5 | CN(C)CCC(Oc1ccc2[nH]ccc2c1)c1ccc(OCCCN2CCCCC2)cc1 (centres unmarked) [Example 19, {3-(1H-Indol-5-yloxy)-3-[4-(3-piperidin-1-yl-propoxy)-phenyl]-propyl}-dimethyl-amine] | 1 nM | 44 nM |  | 0.977 nM
6 | CC(C)N1CCN(CCC#Cc2ccc(C(CCN(C)C)Oc3ccccc3)cc2)CC1 (centres unmarked) [Example 22, (3-{4-[4-(4-Isopropyl-piperazin-1-yl)-but-1-ynyl]-phenyl}-3-phenoxy-propyl)-dimethyl-amine] | 49 nM | 6 nM | 22 nM | 
7 | CN(C)CCC(Oc1ccccc1)c1ccc(C#CCCN2CCOCC2)cc1 (centres unmarked) [Example 23, Dimethyl-{3-[4-(4-morpholin-4-yl-but-1-ynyl)-phenyl]-3-phenoxy-propyl}-amine] | 19 nM | 13 nM | 37 nM | 
8 | CN(C)CCC(Oc1ccccc1)c1ccc(C#CCCN2CCSCC2)cc1 (centres unmarked) [Example 24, Dimethyl-{3-phenoxy-3-[4-(4-thiomorpholin-4-yl-but-1-ynyl)phenyl]-propyl}-amine] | 11 nM | 18 nM | 34 nM | 
9 | CN(C)CCC(Oc1ccccc1)c1cccc(C#CCCN2CCCCC2)c1 (centres unmarked) [Example 31, Dimethyl-{3-phenoxy-3-[3-(4-piperidin-1-yl-but-1-ynyl)-phenyl]-propyl}-amine] | 2 nM | 16 nM | 154 nM | 
10 | CN(C)CCC(Oc1ccc(C(F)(F)F)cc1)c1ccc(CCCCN2CCCCC2)cc1 (centres unmarked) [Example 33, Dimethyl-[3-[4-(4-piperidin-1-yl-butyl)-phenyl]-3-(4-trifluoromethylphenoxy)-propyl]-amine] | 23 nM | 3 nM | 5 nM | 
11 | CC(C)N1CCN(CCCCc2ccc(C(CCN(C)C)Oc3ccc(C(F)(F)F)cc3)cc2)CC1 (centres unmarked) [Example 34, [3-[4-[4-(4-Isopropyl-piperazin-1-yl)-butyl]-phenyl]-3-(4-trifluoromethyl-phenoxy)-propyl]-dimethyl-amine] | 12 nM | 7 nM | 10 nM | 
12 | CN(C)CCC(Oc1ccc(C(F)(F)F)cc1)c1ccc(CCCCN2CCOCC2)cc1 (centres unmarked) [Example 35, Dimethyl-[3-[4-(4-morpholin-4-yl-butyl)-phenyl]-3-(4-trifluoromethyl-phenoxy)-propyl]-amine] | 32 nM | 10 nM | 6 nM | 
13 | CN(C)CCC(Oc1cccc(OCCCN2CCCCC2)c1)c1ccccc1 (centres unmarked) [Example 37, Dimethyl-{3-phenyl-3-[3-(3-piperidin-1-yl-propoxy)-phenoxy]-propyl}-amine] | 0.7 nM | 65 nM | 1330 nM | 
14 | CC(C)N1CCN(C(=O)c2ccc(C(CCN(C)C)Oc3ccc(C(F)(F)F)cc3)cc2)CC1 (centres unmarked) [Example 39, {4-[3-Dimethylamino-1-(4-trifluoromethyl-phenoxy)-propyl]-phenyl}-(4-isopropyl-piperazin-1-yl)-methanone] | 2 nM |  |  | 0.933 nM
15 | CC(C)N1CCC(Oc2ccc(OC(CCN(C)C)c3ccc(C(F)(F)F)cc3)cc2)CC1 (centres unmarked) [Example 45, [3-[4-(1-Isopropyl-piperidin-4-yloxy)-phenoxy]-3-(4-trifluoromethylphenyl)-propyl]-dimethyl-amine] | 2 nM | 65 nM |  | 1.48 nM
16 | CN(C)CCC(Oc1ccc(C(F)(F)F)cc1)c1ccc(C(=O)N2CCN(C3CCCC3)CC2)cc1 (centres unmarked) [Example 50, (4-Cyclopentyl-piperazin-1-yl)-{4-[3-dimethylamino-1-(4-trifluoromethyl-phenoxy)-propyl]-phenyl}-methanone] | 3 nM | 53 nM |  | 1.48 nM
17 | CN(C)CCC(Oc1ccc(C(F)(F)F)cc1)c1ccc(CN2CCN(C3CCCC3)CC2)cc1 (centres unmarked) [Example 51, [3-[4-(4-Cyclopentyl-piperazin-1-ylmethyl)-phenyl]-3-(4-trifluoromethyl-phenoxy)-propyl]-dimethyl-amine] | 7 nM | 30 nM |  | 11.2 nM
18 | CCC(C)N1CCN(C(=O)c2ccc(C(CCN(C)C)Oc3ccc(C(F)(F)F)cc3)cc2)CC1 (centres unmarked) [Example 52, (4-sec-Butyl-piperazin-1-yl)-{4-[3-dimethylamino-1-(4-trifluoromethyl-phenoxy)-propyl]-phenyl}-methanone] | 2 nM | 33 nM |  | 1.2 nM
19 | CCC(CC)N1CCN(C(=O)c2ccc(C(CCN(C)C)Oc3ccc(C(F)(F)F)cc3)cc2)CC1 (centres unmarked) [Example 53, {4-[3-Dimethylamino-1-(4-trifluoromethyl-phenoxy)-propyl]-phenyl}-[4-(1-ethyl-propyl)-piperazin-1-yl]-methanone] | 8 nM | 102 nM |  | 2.45 nM
20 | CCC(CC)N1CCN(Cc2ccc(C(CCN(C)C)Oc3ccc(C(F)(F)F)cc3)cc2)CC1 (centres unmarked) [Example 54, [3-{4-[4-(1-Ethyl-propyl)-piperazin-1-ylmethyl]-phenyl}-3-(4-trifluoromethyl-phenoxy)-propyl]-dimethyl-amine] | 5 nM | 37 nM |  | 18.6 nM
21 | CC(C)N1CCN(Cc2ccc(C(CCN(C)C)Oc3ccc(C(F)(F)F)cc3)cc2)CC1 (centres unmarked) [Example 55, [3-[4-(4-Isopropyl-piperazin-1-ylmethyl)-phenyl]-3-(4-trifluoromethyl-phenoxy)-propyl]-dimethyl-amine] | 2 nM | 27 nM |  | 9.33 nM
22 | NCCC(Oc1ccccc1)c1ccc(OCCCN2CCCCC2)cc1 (centres unmarked) [Example 68, 3-Phenoxy-3-[4-(3-piperidin-1-yl-propoxy)-phenyl]-propylamine] | 0.8 nM | 7 nM | 21 nM | 
23 | CNCCC(Oc1ccccc1)c1ccc(OCCCN2CCCCC2)cc1 (centres unmarked) [Example 72, Methyl-{3-phenoxy-3-[4-(3-piperidin-1-yl-propoxy)-phenyl]-propyl}-amine] | 0.9 nM | 5 nM | 25 nM | 
24 | c1ccc(OC(CCN2CCCC2)c2ccc(OCCCN3CCCCC3)cc2)cc1 (centres unmarked) [Example 73, 1-{3-[4-(1-Phenoxy-3-pyrrolidin-1-yl-propyl)-phenoxy]-propyl}-piperidine] | 0.2 nM | 633 nM | 4000 nM | 

— patent US20080139564A1, “SUBSTITUTED PHENYL PROPYL AMINES AS HISTAMINE H3 RECEPTOR AND SEROTONIN TRANSPORTER MODULATORS” (priority 2006, published 2008)
